Patent publication US10590109B2, “Heterocyclic compounds used as FGFR inhibitors” (Nanjing InnoCare Pharma Tech Co., Ltd., priority 2016, dated 2020)

Key:
[1] = target: human recombinant FGFR4 catalytic structural domain protein (Homo sapiens (Human), UniProt P22455); assay: FGFR4 activity inhibition test (HTRF kinase assay); assay type: biochemical; settings: 90 μM ATP
Method: FGFR4 Activity Inhibition Test
The influence of the compound according to the present invention on the activity of fibroblast growth factor receptor 4 (FGFR4) was evaluated by an in vitro kinase assay experiment.
(§1) The experimental method is summarized as follows:
The in vitro activity of FGFR4 was determined by assaying the phosphorylation level of the substrate in the kinase reaction, by means of an HTRF kinase assay kit.
(§2) If the IC50 value of the compound was very low, the initial concentration of the compound could be reduced.
(§3) After 60 min, the enzyme reaction was terminated by EDTA in the assay solution, and the phosphorylated products were identified by both the Eu^3+ labeled cage-shaped antibody (donor) and the streptavidin labeled XL665 antibody (receptor) at the same time. […] The inhibition percentage of the compound against FGFR4 activity could be calculated with the following formula: Inhibition percentage=100−100*(signalcompound−signalnegative control)/(signalpositive control−signalnegative control)
(§4) The IC50 value of the compound was calculated by the following formula, from 10 concentration points, with XLfit (ID Business Solutions Ltd., UK): Y=Bottom+(Top−Bottom)/(1+10^((Log IC50−X)*slope factor)) Where, Y is the inhibition percentage, Bottom is the bottom plateau of the curve (the bottom plateau of the S-type curve), Top is the top plateau of the curve (the top plateau of the S-type curve), and X is the log value of the compound concentration to be measured.

[2] = target: human recombinant FGFR1 catalytic structural domain protein (Homo sapiens (Human), UniProt P11362); assay: FGFR1 activity inhibition test (HTRF kinase assay); assay type: biochemical; settings: 40 μM ATP
Method: FGFR1 Activity Inhibition Test
The influence of the compound according to the present invention on the activity of fibroblast growth factor receptor 1 (FGFR1) was evaluated by an in vitro kinase assay experiment.
as §1
The in vitro activity of FGFR1 was determined by assaying the phosphorylation level of the substrate in the kinase reaction, by means of an HTRF kinase assay kit.
as §2
as §3, with “FGFR1” for “FGFR4”
(§5) The IC50 value of the compound was calculated by the following formula, from 10 concentration points, with XLfit (ID Business Solutions Ltd., UK): Y=Bottom+(Top−Bottom)/(1+10^((Log IC50−X)*slope factor))
(§6) Where, Y is the inhibition percentage, Bottom is the bottom plateau of the curve (the bottom plateau of the S-type curve), Top is the top plateau of the curve (the top plateau of the S-type curve), and X is the log value of the compound concentration to be measured.

[3] = target: human recombinant FGFR2 catalytic structural domain protein (Homo sapiens (Human), UniProt P21802); assay: FGFR2 activity inhibition test (HTRF kinase assay); assay type: biochemical; settings: 50 μM ATP
Method: FGFR2 Activity Inhibition Test
The influence of the compound according to the present invention on the activity of fibroblast growth factor receptor 2 (FGFR2) was evaluated by an in vitro kinase assay experiment.
as §1
The in vitro activity of FGFR2 was determined by assaying the phosphorylation level of the substrate in the kinase reaction, by means of an HTRF kinase assay kit. The reaction buffer comprised the following components: 5-fold diluted Enzymatic buffer/kinase 5× (Cisbio, Catalog number 62EZBFDD) (main ingredient: 50 mM HEPES, pH 7.0), 5 mM MgCl2, 1 mM DTT; the human recombinant FGFR2 catalytic structural domain protein (amino acids 400-821) was commercially available from Beijing Sino Biological Inc., diluted with the reaction buffer to a 0.045 ng/μL kinase solution; the substrate reaction solution comprised a biotin labeled tyrosine kinase substrate diluted with the reaction buffer to 800 nM (Cisbio, catalog number 62TK0PEC), and 50 μM ATP, and the assay solution comprised an Eu^3+ labeled cage-shaped antibody (Cisbio, Catalog number 61T66KLB) diluted with the assay buffer (Cisbio, Catalog number 62SDBRDF) to 0.125 ng/μL, and 50 nM streptavidin labeled XL665 (Cisbio, Catalog number 610SAXLB).
(§7) The compound was dissolved and diluted in 100% DMSO to 100 μM, then 4-fold-series diluted with DMSO to a minimum concentration of 0.0061 μM, and each concentration point was then 40-fold diluted with the reaction buffer. If the IC50 value of the compound was very low, the initial concentration of the compound could be reduced.
(§8) 4 μL of a compound solution and 2 μL of an FGFR2 kinase solution were added into a 384 well assay plate (Thermo, Catalog number 264706), mixed uniformly and then incubated for 15 min at room temperature; subsequently, 4 μL of the substrate reaction solution was added therein, and the reaction mixture was incubated for 60 min at room temperature; and then 10 μL of an assay solution of an equal volume to the reaction was added therein and mixed uniformly, followed by placement at room temperature. After 60 min, the enzyme reaction was terminated by EDTA in the assay solution, and the phosphorylated products were identified by both the Eu^3+ labeled cage-shaped antibody (donor) and the streptavidin labeled XL665 antibody (receptor) at the same time. After the excitation with laser, the donors and receptors that were close to each other experienced energy resonance transfer, and the energy transferred from the donor (620 nm) to the receptor (665 nm) could be detected with Envision. The ratio of 665/620 is in positive correlation to the phosphorylation degree of the substrate, thereby to detect the FGFR2 kinase activity. […] The inhibition percentage of the compound against FGFR2 activity could be calculated with the following formula: Inhibition percentage=100−100*(signalcompound−signalnegative control)/(signalpositive control−signalnegative control)
as §5, §6

[4] = target: human recombinant FGFR3 catalytic structural domain protein (Homo sapiens (Human), UniProt P22607); assay: FGFR3 activity inhibition test (HTRF kinase assay); assay type: biochemical; settings: 90 μM ATP
Method: FGFR3 Activity Inhibition Test
The influence of the compound according to the present invention on the activity of fibroblast growth factor receptor 3 (FGFR3) was evaluated by an in vitro kinase assay experiment.
as §1
The in vitro activity of FGFR3 was determined by assaying the phosphorylation level of the substrate in the kinase reaction, by means of an HTRF kinase assay kit. The reaction buffer comprised the following components: 5-fold diluted Enzymatic buffer/kinase 5× (Cisbio, Catalog number 62EZBFDD) (main ingredient: 50 mM HEPES, pH 7.0), 5 mM MgCl2, 1 mM DTT; the human recombinant FGFR3 catalytic structural domain protein (amino acids 399-806) was commercially available from Sino Biological Inc., diluted with the reaction buffer to a 0.3 ng/μL kinase solution; the substrate reaction solution comprised a biotin labeled tyrosine kinase substrate diluted with the reaction buffer to 1000 nM (Cisbio, catalog number 62TK0PEC), and 90 μM ATP, and the assay solution comprised an Eu^3+ labeled cage-shaped antibody (Cisbio, Catalog number 61T66KLB) diluted with the assay buffer (Cisbio, Catalog number 62SDBRDF) to 0.125 ng/μL, and 62.5 nM streptavidin labeled XL665 (Cisbio, Catalog number 610SAXLB).
as §7
as §8, with “an FGFR3” for “an FGFR2”, “the FGFR3” for “the FGFR2”
as §4

Hep3B cells = assay: Hep3B cell proliferation inhibition test (CellTiter-Glo); assay type: cell-based; settings: Homo sapiens, 72 h, CTG
Method: Hep3B Cell Proliferation Inhibition Test
The influence of the compound according to the present invention on Hep3B cell proliferation was evaluated by a luminescence cell viability test.
as §1
A CellTilter-Glo (CTG) assay kit was used to detect an indicator ATP of active cellular metabolism by means of a unique stable luciferase, and the luminous signal produced in the test was in direct proportion to the count of active cells in the medium, thereby to detect the cell proliferation of Hep3B.
A CellTilter-Glo agent (Promega, G7572) was comprised of a CellTilter-Glo lyophilized powder and a CellTilter-Glo buffer, and the lyophilized powder was dissolved into the buffer in use.
Hep3B cells (ATCC, HB-8064) (cell source: Shanghai Academy of Life Sciences, Chinese Academy of Sciences) were cultured in a DMEM complete medium (Thermofisher, 11995073) containing a 10% FBS (GBICO, 10099-141) and 100 units/ml mycillin mixed solution (Thermofisher, 15140122). When the cells coverage reached 80-90% in the culture vessel, after the cells were digested and blown about with 0.25% pancreatin (containing EDTA) (Thermofisher, 25200056), they were planted in a white 384 well plate (Thermofisher, 164610), with 1000 cells in each well (27 μl of a DMEM complete medium), and then the 384 well plate was placed into an incubator at 37° C. and 5% CO2 and cultured overnight (18-20 h). The compound was dissolved and diluted in 100% DMSO to 100 μM, then 4-fold-series diluted with DMSO to a minimum concentration of 0.0061 μM, and each concentration point was 50-fold diluted with the FBS-free DMEM medium. If the IC50 value of the compound was very low, the initial concentration of the compound could be reduced. […] This 384 well plate was placed into an incubator at 37° C. and 5% CO2 for further culture, taken out after 72 h, and stood at room temperature for 30 min. The CTG agent was also taken out and balanced to room temperature. 15 μl of the CTG agent was added into each well, and placed onto a shaker to be gently shaken for 3 min to ensure sufficient cell lysis. After 10 min of standing to allow the luminescence signal to be stable, the luminescence signal was read with EnVision (Perkin Elmer).
The inhibition percentage of the compound against Hep3B cell proliferation could be calculated with the following formula: Inhibition percentage=100−100*(signalcompound−signalnegative control)/(signalpositive control−signalnegative control)
The IC50 value of the compound was calculated by the following formula, from 8 concentration points, with XLfit (ID Business Solutions Ltd., UK): Y=Bottom+(Top−Bottom)/(1+10^((Log IC50−X)*slope factor))
as §6

Chain of human recombinant FGFR2 catalytic structural domain protein (P21802 400-821): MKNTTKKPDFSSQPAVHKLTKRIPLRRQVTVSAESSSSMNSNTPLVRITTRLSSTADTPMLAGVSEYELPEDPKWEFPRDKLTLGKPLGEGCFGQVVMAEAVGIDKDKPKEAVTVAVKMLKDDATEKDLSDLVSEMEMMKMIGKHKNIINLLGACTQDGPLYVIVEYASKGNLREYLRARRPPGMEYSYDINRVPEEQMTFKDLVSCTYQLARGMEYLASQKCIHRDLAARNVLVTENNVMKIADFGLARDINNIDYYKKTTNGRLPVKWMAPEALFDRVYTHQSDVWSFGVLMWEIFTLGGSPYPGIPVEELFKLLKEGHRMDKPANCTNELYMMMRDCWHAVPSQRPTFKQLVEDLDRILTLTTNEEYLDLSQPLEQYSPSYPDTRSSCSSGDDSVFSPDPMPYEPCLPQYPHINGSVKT
Chain of human recombinant FGFR4 catalytic structural domain protein (P22455 460-802): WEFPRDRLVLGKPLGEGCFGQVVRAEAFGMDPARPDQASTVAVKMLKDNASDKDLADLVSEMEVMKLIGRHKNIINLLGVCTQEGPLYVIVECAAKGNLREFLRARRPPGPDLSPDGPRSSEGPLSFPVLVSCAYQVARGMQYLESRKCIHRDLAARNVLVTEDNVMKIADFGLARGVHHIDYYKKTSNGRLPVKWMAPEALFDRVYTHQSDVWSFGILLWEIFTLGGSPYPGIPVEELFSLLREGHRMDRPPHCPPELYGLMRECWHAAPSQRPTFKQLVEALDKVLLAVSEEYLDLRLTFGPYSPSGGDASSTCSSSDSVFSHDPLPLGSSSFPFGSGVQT
Chain of human recombinant FGFR1 catalytic structural domain protein (P11362 other isoform, or with tags, fused parts or gaps): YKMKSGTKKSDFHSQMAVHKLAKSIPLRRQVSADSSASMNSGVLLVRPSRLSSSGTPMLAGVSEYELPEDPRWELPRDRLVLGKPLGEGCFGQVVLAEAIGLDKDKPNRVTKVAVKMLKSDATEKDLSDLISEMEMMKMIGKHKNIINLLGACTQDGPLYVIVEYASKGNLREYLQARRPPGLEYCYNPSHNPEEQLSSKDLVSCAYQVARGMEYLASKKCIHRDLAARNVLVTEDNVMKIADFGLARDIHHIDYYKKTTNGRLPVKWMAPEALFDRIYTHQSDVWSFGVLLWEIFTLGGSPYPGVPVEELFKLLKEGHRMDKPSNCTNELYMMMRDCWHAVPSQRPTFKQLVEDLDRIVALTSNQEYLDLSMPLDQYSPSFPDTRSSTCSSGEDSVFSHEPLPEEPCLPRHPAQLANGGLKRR
Chain of human recombinant FGFR3 catalytic structural domain protein (P22607 399-806): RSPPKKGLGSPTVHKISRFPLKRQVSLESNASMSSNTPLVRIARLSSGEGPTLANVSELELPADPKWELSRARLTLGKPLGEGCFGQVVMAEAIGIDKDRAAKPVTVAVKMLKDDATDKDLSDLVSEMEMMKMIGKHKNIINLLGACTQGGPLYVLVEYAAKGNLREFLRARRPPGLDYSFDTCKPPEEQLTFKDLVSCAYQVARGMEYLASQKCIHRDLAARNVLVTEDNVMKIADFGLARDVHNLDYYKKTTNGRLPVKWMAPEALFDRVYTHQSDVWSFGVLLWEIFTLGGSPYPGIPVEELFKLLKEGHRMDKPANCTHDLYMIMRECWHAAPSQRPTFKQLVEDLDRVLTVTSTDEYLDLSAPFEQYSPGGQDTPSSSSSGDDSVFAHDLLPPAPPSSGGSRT

| IC50 [1] | IC50 [2] | IC50 [3] | IC50 (Hep3B cells) | SMILES | IC50 [4] |
| --- | --- | --- | --- | --- | --- |
| < 10 nM | > 1000 nM | > 1000 nM |  | COCCOc1cc(NC(=O)N(C)c2ccc(CN3CCN(C)CC3=O)c(C=O)n2)ncc1C#N [Compound 20, 3-(5-cyano-4-(2-methoxyethoxy)pyrid-2-yl)-1-(6-formyl-5-((4-methyl-2-carbonylpiperazin-1-yl)methyl)pyrid-2-yl)-1-methylurea] | > 1000 nM |
| 10 to 100 nM | > 1000 nM | > 1000 nM | 50 to 100 nM | COCCNc1cc(NC(=O)N(C)c2ccc(C3CCNCC3)c(C=O)n2)ncc1C#N [Compound 23, 3-(5-cyano-4-((2-methoxyethyl)amino)pyrid-2-yl)-1-(6-formyl-5-(piperidin-4-yl)pyrid-2-yl)-1-methylurea] |  |
| 10 to 100 nM | > 1000 nM | > 1000 nM |  | CC(C)Oc1cc(NC(=O)N(C)c2ccc(CN3CCOCC3=O)c(C=O)n2)ncc1C#N [Compound 13] | > 1000 nM |
| < 10 nM | > 1000 nM | > 1000 nM |  | C[C@H](CO)Oc1cc(NC(=O)N(C)c2ccc(CN3CCN(C)CC3=O)c(C=O)n2)ncc1C#N [Compound 25, (R)-3-(5-cyano-4-((1-hydroxyprop-2-yl)oxy)pyrid-2-yl)-1-(6-formyl-5-((4-methyl-2-carbonylpiperazin-1-yl)methyl)pyrid-2-yl)-1-methylurea] | > 1000 nM |

More lines, now with the values behind:

| SMILES | IC50 [1] | IC50 [2] | IC50 [3] | IC50 (Hep3B cells) | IC50 [4] |
| --- | --- | --- | --- | --- | --- |
| CN(C(=O)Nc1cc(Cl)c(C#N)cn1)c1ccc(CN2CCOCC2=O)c(C=O)n1 [Compound 11] | 10 to 100 nM | > 1000 nM | > 1000 nM |  | > 1000 nM |
| COCCNc1cc(NC(=O)N(C)c2ccc(CO)c(C=O)n2)ncc1C#N [Compound 21, 3-(5-cyano-4-((2-methoxyethyl)amino)pyrid-2-yl)-1-(6-formyl-5-(hydroxymethyl)pyrid-2-yl)-1-methylurea] | 100 to 1000 nM | > 1000 nM | > 1000 nM |  | > 1000 nM |
| CN(C(=O)Nc1cc(Cl)c(C#N)cn1)c1ccc(CO)c(C=O)n1 [Compound 22, 3-(4-chloro-5-cyanopyrid-2-yl)-1-(6-formyl-5-(hydroxymethyl)pyrid-2-yl)-1-methylurea] | 100 to 1000 nM | > 1000 nM | > 1000 nM |  | > 1000 nM |
